Test results from patent US6447988B2, “In vitro assay method for the study of brain aging” (The Regents of the University of California, priority 1997, dated 2002).

Key:
hippocampal slices [1] = conditions: cited from earlier work
hippocampal slices [2] = experiment: Western blot analyses of cultured hippocampal slices exposed to ZPAD; assay type: cell-based, Sprague-Dawley rats; conditions: for replication of ZPAD-induced alterations by more selective inhibitors of cathepsin L: cultured brain slices
Description: (§1) Hippocampal slices were prepared from 10-13 day-old Sprague-Dawley rats and maintained in culture using the method of Stoppini et al. (1991, supra). Briefly, the hippocampi were dissected in ice-cold artificial cerebrospinal fluid (124 mM NaCl, 10 mM glucose, 3 mM KCl, 1.25 mM KH2PO4, 4 mM MgSO4, 2 mM CaCl2, 26 mM NaHCO3, 2 mM ascorbate, 0.1 mM ascorbate, pH=7.3), and 400 μm thick slices were produced on a McIlwain tissue chopper. One ml of culture media (50% Basal Medium Eagle, 25% Earle's Balance Salt Solution, 25% horse serum), supplemented with 136 mM NaCl, 2 mM CaCl2, 2.5 mM MgSO4, 5 mM NaHCO3 3 mM glutamine, 40 mM glucose, 0.5 mM ascorbic acid, 20 mM HEPES (pH=7.3), 1 mg/L insulin, 5 U/ml penicillin and 5 mg/L streptomycin, was added to each well of a six well culture plate, and inserts containing a polystyrene membrane (pore size: […]) were placed in each well to support the hippocampal sections. Slices were incubated in a humidified, 37° C. atmosphere containing 5% CO2 and maintained in culture for at least nine days before experiments were initiated. Media was replenished on the first day after explantation, and every 2-3 days during the initial culture period. A subset of the hippocampal slices in the six-well culture dishes was exposed to media (as described above, with heat-treated horse serum) containing 30-50 μM ZPAD (BACHEM Bioscience, Inc., Torrance, Calif.). Tissue was harvested after three to six days of continuous ZPAD exposure.

cathepsin D mRNA = experiment: In situ hybridization for cathepsin D mRNA in cultured hippocampal slices; assay type: cell-based, Sprague-Dawley rats; conditions: four days of exposure to 45 μM ZPAD
Description: as §1, with “Tissue was harvested after three to six days of continuous ZPAD exposure.” left out

hippocampal slices [3] = experiment: Electron microscopy of cultured hippocampal slices treated with ZPAD; assay type: cell-based, Sprague-Dawley rats
Description: as §1
Furthermore, lysosomes in CA1 and CA3 pyramidal cells were not restricted to the soma but instead were located throughout dendritic processes. Clusters of lysosomes were commonly found within bulging segments of proximal dendrites that were notable for an absence of nicrotubules and neurofilaments. […] These appendages are similar in form and content to structures previously referred to as “meganeurites.” While pyknotic nuclei were sometimes encountered, most of the cells in slices exposed to ZPAD for six days appeared relatively normal. […]

[4] = chloroquine treatment of long-term hippocampal slices
[5] = 45 μM ZPAD for six days, electron microscope

Compound: CCN(CC)CCCC(C)Nc1ccnc2cc(Cl)ccc12 (centres unmarked) [chloroquine]
- carboxy-terminal fragments of the amyloid precursor protein (APP) (hippocampal slices [1]; [4]): appearance
- synaptophysin (hippocampal slices [1]; [4]): loss

Compound: CC(C)C[C@H](NC(=O)[C@@H](NC(=O)N[C@@H](Cc1ccccc1)C(=O)O)[C@@H]1CCN=C(N)N1)C(=O)N[C@H](C=O)Cc1ccccc1 [chymostatin]
- replication of ZPAD-induced alterations by more selective inhibitors of cathepsin L (hippocampal slices [2]): replicated several of the ZPAD-induced alterations

Compound: C=C(C)[C@H]1CN[C@H](C(=O)O)[C@H]1CC(=O)O [kainic acid]
- rate of build-up of β-amyloid-containing fragments and loss of synaptophysin (hippocampal slices [1]; pre-treatment with kainic acid before chloroquine): more rapid

Compound: N-CBZ-L-phenylalanyl-L-alanine-diazomethylketone [ZPAD]
- levels of 25-30 kDa fragments of amyloid precursor protein (hippocampal slices [2]; 45 μM ZPAD for six days, Western blot): increased levels
- levels of active cathepsin D protein in lysosomal and non-lysosomal (cytosolic) compartments (hippocampal slices [2]; Western blots of subcellular fractions of ZPAD-exposed slices): markedly elevated levels
- increase in the protein level of cathepsin D (hippocampal slices [2]; slices exposed to 30-50 μM ZPAD for three to six days, Western blot, p<0.001, n=8): 3 fold
- degradation of cytoskeletal proteins (hippocampal slices [2]; slices exposed to 30-50 μM ZPAD for three to six days, Western blot, tubulin, spectrin, microtubule-associated protein-2, tau): proteolytic degradation of four cytoskeletal proteins
- increase in the level of cathepsin D mRNA, CA3 neurons (cathepsin D mRNA; CA3 neurons): 56%
- increase in the level of cathepsin D mRNA, glial cells of subfield CA1 stratum radiatum (cathepsin D mRNA; p<0.01): 71%
- meganeurite formation on CA1 neurons (hippocampal slices [3]; [5]): a small percentage of CA1 neurons
- number of lysosomes in the perikarya of neurons and glia (hippocampal slices [3]; [5]): dramatic increase
- meganeurite-containing CA1 pyramidal cells after washout (hippocampal slices [3]; ZPAD for six days, then seven additional days in culture without ZPAD): more commonly found

Compound: N-CBZ-L-phenylalanyl-L-phenylalanine-diazomethylketone
- replication of ZPAD-induced alterations by more selective inhibitors of cathepsin L (hippocampal slices [2]): replicated several of the ZPAD-induced alterations
